In publication PMC7956481, “Carrier-Free Immobilization of α-Galactosidase as Nano-Biocatalysts for Synthesizing Prebiotic α-Galacto-Oligosaccharides” (Molecules, 2021):

Test system: T1, α-galactosidase
T1 construct: gene aglA; native extracellular enzyme; filtered culture supernatant used as crude enzyme, not purified
Assay: p-nitrophenol release at […] nm, Michaelis-Menten fit (GraphPad Prism […])
Type: biochemical, Aspergillus niger
Details: free enzyme (crude culture supernatant); 50 mM acetate buffer pH 5.5; 37 °C; 10 min; 0.3 to 2.2 mM substrate

Work on `O=[N+]([O-])c1ccc(O[C@H]2O[C@H](CO)[C@H](O)[C@H](O)[C@H]2O)cc1` [p-Nitrophenyl α-D-galactopyranoside] yielded a Km of 300 ± 20 µM.
